The values that follow are results of earlier work, collected in patent US8377888B2, “Method of predicting the clinical response to cisplatin or carboplatin chemotherapeutic treatment” (Pangaea Biotech, S.A., priority 2005, dated 2013).

The test system of data set [1] is MKN74 (14-3-3σ methylation-positive, wild-type p53).
The test system of data set [2] is 14-3-3σ methylation-negative cell lines. The note with it: wild-type or mutated p53.
Data set [3] relates to Colon carcinoma cells lacking 14-3-3σ. The note with it: cells initiate but do not maintain G2 arrest.
The test system of data set [4] is MKN28 (14-3-3σ methylation-positive, mutated p53).
In data set [5] the test system is non-small cell lung cancer (NSCLC). The note with it: per arm of randomized study.

With `COc1cccc2c1C(=O)c1c(O)c3c(c(O)c1C2=O)C[C@@](O)(C(=O)CO)C[C@@H]3O[C@H]1C[C@H](N)[C@H](O)[C@H](C)O1` [adriamycin], the values for the Sensitivity to adriamycin entry in data set [1], in data set [2] and in data set [4] were “highly sensitive”, “resistant” and “highly sensitive”, respectively. Also, in data set [3], the “Cell fate after adriamycin treatment” value was “mitotic catastrophe and cell death”.
Take paclitaxel/carboplatin: the Median survival in data set [5] was 8.2 months.
